The test system of assay [1] is pAkt (Ser473) in HL-60 cells. The experiment in a line: flow cytometry of pAkt bright cells (FIG. 2B). In kind it is cell-based, human. As to conditions: HL-60, 40 nM, 200 nM and 1 μM. The method, then: Human promyelocytic leukemia HL60 Cells (500,000/well) were plated in 24-well tissue culture plates (Corning Life Sciences) in RPMI 10% FCS (Gibco) and were treated with the compounds described in Example 60 and 83 at 40 nM, 200 nM and 1 μM concentrations in 500 μl media. After 24 h incubation time cells with the corresponding supernatants were harvested and centrifuged down (2000 rpm, 5 min).
Pellets were resuspended and fixed in 3.5% PBS buffered formaldehyde (Molar Chemicals) for 10 minutes. Cells were washed with FACS-buffer (2% FCS, (Gibco) in PBS), centrifuged down (2000 rpm, 5 min). Cells were permeabilized in Permeability buffer (1% FCS, 0.1% saponin (Sigma-Aldrich) in PBS pH 7.4) for 5 minutes. Cells were washed with FACS buffer (2% FCS, (Gibco) in PBS), centrifuged (2000 rpm, 5 min). The following primary antibodies were used: Bcl-xl-Alexa 488, (Cell Signaling, cat. numb. 2767S), dilution 1:75, 24 h; pAkt-Alexa Fluor 488, (Ser473), (Cell Signaling, cat. numb, 4071), dilution 1:50, 24 or 72h; After incubation for 1h at 4° C. samples were washed two times with FACS buffer. […] In order to calculate the signal to noise ratio mean fluorescent intensity (MFI) was calculated by the following equation: =POWER(10; (Medianstained−Median unstained, untreated)/Chd), where Chd means 256, the number of channels per decade (Fajka-Boja et al. 2002; Sharrow 2001) in Microsoft Excel. […]
In general terms: A flow cytometer gives signals particle by particle.

Assay [2] has as its system GBM2 (human glioblastoma). The experiment in a line: viability assay (Table 2). In kind it is cell-based. The method, then:
(§1) For viability assays cells were seeded in 96 well plates (MCF7 and 4T1: 6000, HL60: 120.000 cells/well) and incubated overnight. Compounds were dissolved in dimethyl sulfoxide (DMSO). Cells were treated with an increasing concentration of compounds having the general formula (I.) (156 nM-100 μM). Cell viability was determined after 72h incubation. Resazurin reagent (Sigma-Aldrich) was dissolved in PBS (pH 7.4) at 0.15 mg/ml concentration, sterile filtered (0.22 μm, Merck Millipore) and aliquoted at −20° C. Resazurin reagent (Sigma-Aldrich) was added at a final concentration of 25 μg/ml. After 2 hours incubation at 37° C. 5% CO2 fluorescence (530 nm excitation/580 nm emission) was recorded on a multimode microplate reader (Cytofluor4000, PerSeptive Biosytems). Viability was calculated with relation to untreated control cells and blank wells containing media without cells. IC50 values (50% inhibiting concentration) were calculated by GraphPad Prism® 5 (La Jolla, Calif., USA).
(§2) GBM2 (human glioblastoma), HeLa (human cervical carcinoma), MIA PaCa-2 (human pancreas carcinoma) and U87MG (human glioblastoma) cells were maintained in Dulbecco's Modified Eagle Medium (DMEM) 10% fetal calf serum (FCS, Gibco). A375 (human melanoma), A549 (human lung adenocarcinoma) and HEP3B (human hepatoma) cells were maintained in Dulbecco's Modified Eagle Medium/Nutrient Mixture F-12 (DMEM/F12) 10% FCS.
(§3) Media were supplemented with 2 mM GlutaMAX, and 100 U/mL penicillin, 100 μg/mL streptomycin (Life Technologies, Carlsbad, Calif., USA). Cell cultures were maintained at 37° C. in a humidified incubator in an atmosphere of 5% CO2 (Sanyo, Japan).
(§4) Viability assays were performed as described in Example 102.

Assay [3] deals with MIA PaCa-2 (human pancreas carcinoma). In words: viability assay (Table 2). In kind it is cell-based. The method, then: as §1, §2, §3, §4
The subject of assay [4] is A549 (human lung adenocarcinoma). In words: viability assay (Table 2). In kind it is cell-based. The procedure:
as §1, §2, §3, §4

Assay [5] relates to HT168 (human melanoma). The experiment in a line: viability assay (Table 2). In kind it is cell-based. The method, then: as §1
(§5) HT168 (human melanoma), HT199 (human melanoma), HT29 (human colorectal adenocarcinoma), MOLT4 (human leukemia) and U937 (human lymphoma) cells were maintained in Roswell Park Memorial Institute 1640 medium (RPMI-1640) 10% FCS. SKOV-3 cells were maintained in Dulbecco's Modified Eagle Medium/McCoy's medium (DMEM/McCoy) 10% FCS.
as §3, §4

The subject of assay [6] is HT199 (human melanoma). The experiment in a line: viability assay (Table 2). The format is cell-based. The method, then:
as §1, §5, §3, §4

Assay [7] has as its system HT29 (human colorectal adenocarcinoma). In words: viability assay (Table 2). Particulars: HT-29. The format is cell-based. The method, then:
as §1, §5, §3, §4

For assay [8], the system named is HTT199 human melanoma cells in SCID immune-deficient mouse. The experiment in a line: melanoma mouse model (FIG. 8). In kind it is in vivo. As to conditions: 3 mg/kg intravenously, 10 occasions. The method, then:
The effect on melanoma was studied on SCID immune-deficient mouse model inoculated in the spleen with HTT199 human melanoma cells (ATCC) (1 million cells/animal). Two groups were formed from randomly selected mice, with 10 animals in each group. Group 1: control group, it was only administered a carrier (0.1 mL, 0.9% NaCl solution) intravenously; group 2: group treated with compound 83, it was administered 3 mg/kg of compound 83 in PEG100:Solutol:PBS (1:4:15 vol ratio), intravenously.
The treatments were performed from the third day, on five consecutive occasions per week, for 2 weeks, on a total of 10 occasions. As time went on, every day we determined the number of surviving animals and represented it in percentage per group as compared to the total initial number of animals (FIG. 8). It can be seen that the 3 mg/kg dose of compound 83 administered intravenously was effective, the treatment with compound 83 increased the LD50 (from day 33 to day 38) and the survival rate of the animals.

The test system of assay [9] is CD11b on HL-60 cells. In words: flow cytometry of cell surface CD11b (FIG. 3B). In kind it is cell-based, human. As to conditions: HL-60, 24, 48 and 72 h after treatment. The method, then:
Experiments detecting CD11b expression by Flow cytometric immunofluorescence were done as described in Example 104 without fixation and permeabilization. Native cell surface staining was done by CD11b-FITC (Immunotools cat number 21389113), with 1:20 dilution 24, 48 and 72 h after treatment.

“Also recorded” adds a separate entry of the source.

Broadly, the IC50 is the concentration that inhibits the measured activity by half. A higher IC50 goes with weaker potency. As to `CC(C)(C)Nc1c(C(C)(C)C)[nH]c2c(C(=O)Nc3ccc(F)cc3)cnn12` [Example 60, 2-(Tert-butyl)-N-(4-fluorophenyl)-3-((tert-butyl-2-yl)amino)-1H-imidazo[1,2-b]pyrazole-7-carboxamide], in assay [1], the “percentage of the pAkt bright cells” value was “increase”. The IC50 in assay [2] is 0.25 µM; in assay [3] it was 0.3 µM; in [4], 0.75 µM; in assay [5] it was 0.5 µM; in assay [6] it was 0.3 µM; in [7], 0.25 µM.
On to `CC(C)(C)Nc1c(C(C)(C)C)[nH]c2c(C(=O)Nc3ccc(N)cc3)cnn12` [Example 83, N-(4-Aminophenyl)-2-(tert-butyl)-3-(tert-butylamino)-1H-imidazo[1,2-b]pyrazole-7-carboxamide], for which, in assay [8], the “survival rate of the animals” value is “increased”. The compound further returned a median survival time in [8] (control day 33) of 38 days. Moreover, the “percentage of the pAkt bright cells” value in assay [1] is listed as “increase”. The “matured myeloid cell marker CD11b on the cell surface” value in assay [9] is listed as “elevation; also recorded: elevated”. The concentration for half-maximal inhibition (IC50) in [2] turned out to be 0.1 µM; in [3] it was 0.3 µM; in [4], 0.3 µM; in assay [5], 0.1 µM; in assay [6], 0.1 µM; in [7], 0.05 µM.

Values taken from US20220064167A1, “IMIDAZO-PYRAZOLE CARBOXAMIDE DERIVATIVES AS ANTICANCER AGENTS AND THE SYNTHESIS THEREOF” (AVIDIN KFT., priority 2018, published 2022).
